Experiment: xn = mol fraction of the nth substance listed

CCCCCCCCCC(=O)OC + CCCCCCCCCCC
viscosity [mPa·s], 100 kPa
Details	x2 = 0.0986	x2 = 0.1998	x2 = 0.2992	x2 = 0.3988	x2 = 0.4974	x2 = 0.5994	x2 = 0.6999	x2 = 0.7993	x2 = 0.899
293.15 K	1.97	1.831	1.717	1.611	1.516	1.425	1.342	1.272	1.219
298.15 K	1.783	1.662	1.559	1.468	1.386	1.306	1.234	1.169	1.124
303.15 K	1.625	1.517	1.427	1.344	1.268	1.198	1.137	1.08	1.039
308.15 K	1.487	1.392	1.311	1.237	1.171	1.109	1.053	1.002	0.964
313.15 K	1.368	1.283	1.211	1.145	1.083	1.029	0.978	0.932	0.897
318.15 K	1.264	1.187	1.122	1.062	1.007	0.958	0.912	0.871	0.838
323.15 K	1.172	1.102	1.044	0.99	0.939	0.894	0.853	0.815	0.786

CCCCCCCCCCCCCCCC + CCCCCCCCCCCC
298.15 K, 101.33 kPa
Details	viscosity [mPa·s]
x2 = 0.1077	2.821
x2 = 0.2113	2.643
x2 = 0.3061	2.467
x2 = 0.4097	2.281
x2 = 0.5073	2.102
x2 = 0.6082	1.936
x2 = 0.7053	1.767
x2 = 0.8045	1.636
x2 = 0.905	1.476

ClC(Cl)Cl + CCCCCCCCCCO
viscosity [mPa·s], 101 kPa
Details	303.15 K	313.15 K
x1 = 0.0523	8.774	6.174
x1 = 0.1025	7.938	5.59
x1 = 0.1519	7.108	5.068
x1 = 0.1992	6.311	4.603
x1 = 0.2501	5.65	4.121
x1 = 0.2992	5.021	3.726
x1 = 0.3497	4.374	3.291
x1 = 0.4005	3.838	2.935
x1 = 0.451	3.293	2.571
x1 = 0.5	2.873	2.259
x1 = 0.5504	2.439	1.974
x1 = 0.5991	2.098	1.697
x1 = 0.6496	1.778	1.48
x1 = 0.699	1.501	1.251
x1 = 0.7508	1.277	1.076
x1 = 0.799	1.052	0.911
x1 = 0.8513	0.916	0.77
x1 = 0.8999	0.784	0.661
x1 = 0.9501	0.651	0.561

ClC(Cl)Cl + CCCCCCCCO
viscosity [mPa·s], 101 kPa
Details	303.15 K	313.15 K
x1 = 0.0471	5.924	4.259
x1 = 0.0996	5.36	3.883
x1 = 0.149	4.852	3.545
x1 = 0.1997	4.346	3.212
x1 = 0.2493	3.898	2.902
x1 = 0.3001	3.475	2.593
x1 = 0.3529	3.039	2.315
x1 = 0.4037	2.666	2.07
x1 = 0.4548	2.332	1.823
x1 = 0.5001	2.062	1.648
x1 = 0.555	1.772	1.426
x1 = 0.5995	1.552	1.273
x1 = 0.6467	1.37	1.134
x1 = 0.7001	1.171	0.987
x1 = 0.7484	1.036	0.883
x1 = 0.7997	0.929	0.769
x1 = 0.8451	0.804	0.704
x1 = 0.9007	0.693	0.627
x1 = 0.9494	0.616	0.555

— the CheMixHub viscosity set
